This is an account of results in US20070293568A1, “Neurocyte Protective Agent” (priority 2006, published 2007).

Test [1] deals with TH positive cell specific MnSOD-deficient mice (KO mice). The test is described as follows: Body weight change of KO mice given YAX in the diet. As to conditions: overall conclusion from body weight, life span and behavior in TH positive cell specific MnSOD-deficient mice. Format: in vivo. The text has this: As genetically modified mice serving as models for neurodegeneration, in which MnSOD has been specifically deficient in dopamine cells of the substantia nigra and noradrenaline cells of the locus ceruleus in the central nervous system, tyrosine hydroxylase (TH) positive cell specific MnSOD-deficient mice were generated based on the method described in WO 2004/014131. Specifically, first, a homozygous MnSOD flox mouse (lox/lox, +/+) was mated with a TH-Cre transgenic mouse controlled by a TH (tyrosine hydroxylase) promoter, so that heterozygous mice (lox/w, Cre/+) having the TH-Cre transgene were generated. Then, the heterozygous mouse and a MnSOD flox mouse were mated to generate the TH positive cell specific MnSOD-deficient mice (lox/lox, Cre/+) of interest.
The YAX prepared in Preparation Example 2 was used as the astaxanthin, and this was administered with the diet. […] It should be noted that for comparison, the KO mice in the control group fed with an ordinary diet not containing YAX were monitored in the same manner.
The body weight was measured once a week, and a Student's t-test was performed. The life span was analyzed using the Kaplan-Meier method. […] The behavior was analyzed by the footprinting test. […] Specifically, ink is applied to the hind feet of the mice and the mice are allowed to walk, and the width of the footprints left behind is analyzed. […]

In test [2] the test system is mice, cerebral ischemia/reperfusion. The following applies: reperfusing after cerebral ischemia, astaxanthin administered; cited from earlier work.
The test system of test [3] is lipid peroxide in the blood. The following applies: cited from earlier work.

Turning to `CC1=C(/C=C/C(C)=C/C=C/C(C)=C/C=C/C=C(C)/C=C/C=C(C)/C=C/C2=C(C)C(=O)[C@@H](O)CC2(C)C)C(C)(C)C[C@H](O)C1=O` [astaxanthin], the neurocyte protective activity entry in test [1] is reported as “powerful neurocyte protective activity”. Besides, the “depression in motor ability” value in test [2] is “suppressed”. The “lipid peroxide in the blood” value in test [3] is “suppresses”.
